The results in this text go back to PMC9184688, “α-Glucosidase inhibitive diarylheptanoids from Ottelia acuminata var. acuminata, a traditional vegetable of Bai Nationality in Yunnan” (Natural Products and Bioprospecting, 2022).

Marks after values point to notes of the source that are not given here.

One experiment addresses T1, PTP1B (Homo sapiens, UniProt P18031).
T1 construct: purchased Sigma Chemical (Merck KGaA, Darmstadt, Germany)
T1 sequence (P18031 1-322 limits assumed): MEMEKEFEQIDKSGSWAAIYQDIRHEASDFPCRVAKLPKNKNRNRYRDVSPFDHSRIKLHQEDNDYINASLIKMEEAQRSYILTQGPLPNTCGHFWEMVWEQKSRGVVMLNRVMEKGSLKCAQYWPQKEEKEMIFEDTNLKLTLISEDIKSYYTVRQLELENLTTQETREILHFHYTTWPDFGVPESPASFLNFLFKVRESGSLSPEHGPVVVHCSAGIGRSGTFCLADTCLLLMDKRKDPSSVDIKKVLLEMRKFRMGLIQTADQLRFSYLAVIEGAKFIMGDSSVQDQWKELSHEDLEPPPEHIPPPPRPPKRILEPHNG
Description: PTP1B inhibitory assay (phosphate-based detection reagent, absorbance at 620 nm). It is filed as biochemical. The following applies: means ± SD (n = 3). As for the experimental part: IR spectra were measured on a Bruker FT-IR Tensor-27 infrared spectrophotometer with KBr disks. Optical rotations were recorded on a JASCO P-1020 polarimeter. UV spectra were obtained with a Shimadzu UV-2401PC spectrometer. 1D and 2D NMR spectra were performed on a Bruker DRX-600 spectrometer using TMS as an internal standard. The chemical shifts (δ) were expressed in ppm with reference to the solvent signals. HREIMS and HRESIMS analysis were obtained from Waters Xevo TQS and Agilent G6230 TOF mass spectrometers, respectively. […] Semi-preparative HPLC was performed on a Waters 1525 HPLC with a ZORBAX SB-C18 (9.4 × 250 mm) column. Silica gel (100–200 and 200–300 mesh, Qingdao Marine Chemical Co., Ltd., People’s Republic of China), and MCI gel (75–150 μm, Mitsubishi Chemical Corporation, Tokyo, Japan) were used for column chromatography. Fractions were monitored by TLC (GF 254, Qingdao Marine Chemical Co., Ltd.), and spots were visualized by heating silica gel plates immersed in 10% H2SO4 in ethanol. Methanol (HPLC grade) and acetonitrile (HPLC grade) was purchased from CINC High Purity Solvents Co., Ltd (Shanghai, China).
The α-glucosidase and PTB1B inhibitory activity were conducted according to the previous reports with slight modifications. […] While in the PTB1B inhibitory assay, after addition of phosphate-based detection reagent then incubation at 30 °C for 20 min, and absorbance was measured at 620 nm and suramin was used as positive control. The inhibition percentage was calculated as follows: inhibition rate (%) = (E – S)/E × 100% (E is the OD of the control and S is the OD of the sample) and IC50 (50% concentration of inhibition) was calculated by Reed and Muench method.

A further experiment has as its target α-glucosidase (Saccharomyces cerevisiae, UniProt P53341). Description: α-glucosidase inhibitory assay (PNPG, absorbance at 405 nm). It is filed as biochemical. The note with it: at a concentration of 50 μM; means ± SD (n = 3); read-out: α-Glucosidase Inhibition ratio (%).
The mark [1] stands for this setting: test concentration of the compounds not given.

Chain of α-glucosidase (P53341 whole entry): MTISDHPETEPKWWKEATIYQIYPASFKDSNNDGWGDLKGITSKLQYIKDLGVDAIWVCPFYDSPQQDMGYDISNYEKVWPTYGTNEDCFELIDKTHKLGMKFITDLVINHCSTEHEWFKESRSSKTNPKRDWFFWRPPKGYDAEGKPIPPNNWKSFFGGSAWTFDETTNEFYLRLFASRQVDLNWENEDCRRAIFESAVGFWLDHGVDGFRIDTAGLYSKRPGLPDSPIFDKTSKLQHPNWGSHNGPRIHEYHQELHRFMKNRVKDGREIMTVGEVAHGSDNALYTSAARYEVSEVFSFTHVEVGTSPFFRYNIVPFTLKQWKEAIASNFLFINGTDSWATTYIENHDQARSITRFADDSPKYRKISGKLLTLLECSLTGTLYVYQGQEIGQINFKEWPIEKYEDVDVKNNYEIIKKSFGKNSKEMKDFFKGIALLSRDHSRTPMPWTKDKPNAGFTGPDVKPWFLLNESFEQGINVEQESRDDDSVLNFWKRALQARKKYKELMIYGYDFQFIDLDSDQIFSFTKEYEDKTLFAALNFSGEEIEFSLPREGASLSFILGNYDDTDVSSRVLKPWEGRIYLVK
Description for α-glucosidase: The α-glucosidase and PTB1B inhibitory activity were conducted according to the previous reports with slight modifications [49, 50]. […] The inhibition percentage was calculated as follows: inhibition rate (%) = (E – S)/E × 100% (E is the OD of the control and S is the OD of the sample) and IC50 (50% concentration of inhibition) was calculated by Reed and Muench method.

With `Oc1ccc2cc1Oc1ccc(cc1)CC=CC=CC(O)C2` (centres unmarked) [Compound 1, Otteacumiene A], the “PTP1B inhibition ratio (%)” value on PTP1B (setting [1]) was -9.47 ± 2.28%. For the same compound, the inhibition at 50 µM on α-glucosidase turned out to be 38.3 ± 1.79%.

Turning to `Oc1ccc(C/C=C/C=C\CCc2ccc(O)cc2)cc1` [Compound 5, Otteacumiene E], the “PTP1B inhibition ratio (%)” value on PTP1B (setting [1]) is given as -0.28 ± 1.89%. `COC1c2ccc(O)c(c2)Oc2ccc(cc2)CCC=CCC1O` (centres unmarked) [Compound 3, Otteacumiene C]: the “PTP1B inhibition ratio (%)” value at PTP1B (setting [1]) turned out to be 19.07 ± 0.85%.

For the compound `Oc1ccc2cc1Oc1ccc(cc1)C[C@H](O)/C=C\C=C\C2` [Compound 2, Otteacumiene B], the “PTP1B inhibition ratio (%)” value at PTP1B (setting [1]) was determined as 11.32 ± 2.03%. Moreover, the inhibition at 50 µM at α-glucosidase was 43.98 ± 0.43%. Consider `Oc1ccc2cc1Oc1ccc(cc1)CC/C=C\C=C\C2` [Compound 8, tedarenes A], for which the “PTP1B inhibition ratio (%)” value on PTP1B (setting [1]) was -3.47 ± 1.21%. As for `O=C1C/C=C/CCc2ccc(O)c(c2)-c2cc(ccc2O)C1` [Compound 4, Otteacumiene D], at PTP1B (setting [1]), the “PTP1B inhibition ratio (%)” value turned out to be 10.37 ± 2.17%.

`COc1ccc(CC/C=C\C=C\Cc2ccc(O)cc2)cc1` [Compound 6, Otteacumiene F]: the “PTP1B inhibition ratio (%)” value at PTP1B (setting [1]) is on record as -12.94 ± 2.98%. On to `Cc1ccc(C(=O)Nc2ccc(S(=O)(=O)O)c3cc(S(=O)(=O)O)cc(S(=O)(=O)O)c23)cc1NC(=O)c1cccc(NC(=O)Nc2cccc(C(=O)Nc3cc(C(=O)Nc4ccc(S(=O)(=O)O)c5cc(S(=O)(=O)O)cc(S(=O)(=O)O)c45)ccc3C)c2)c1` [Suramin, suramin, reference compound], for which the “PTP1B inhibition ratio (%)” value on PTP1B (at a concentration of 20 μM, positive control) was 84.11 ± 0.42^d %. `COc1ccc(/C=C/C/C=C/CCc2ccc(OC)cc2)cc1` [Compound 7, (1E,4E)-1,7-di(4-methoxyphenyl)-1,4-heptadiene]: the “PTP1B inhibition ratio (%)” value at PTP1B (setting [1]) is recorded as -26.62 ± 2.28%.
